Reference: US4439426A, “Semisynthetic macrolidic antibiotics, intermediate compounds for their preparation and related pharmaceutical compositions containing them” (priority 1981, dated 1984)
Values after ≈ are worked out from the molar mass of the structure shown.

Key:
Salmonella typhy LRP 8 = assay: microbe, parasite or virus in culture; type: cell-based; details: LRP8, solid medium, read-out: Minimum inhibiting concentration
Outline: (§1)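 Minimum concentration preventing growth is given for every organism; the collection included anaerobes as well as aerobes, with both Gram types represented.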

[1] = test system: Clostridium perfrigens ATCC 3624 LRP 206; assay: microbe, parasite or virus in culture; type: cell-based; details: ATCC3624, solid medium, anaerobic, read-out: Minimum inhibiting concentration
Outline: as §1

[2] = test system: Corynebacterium diphteriae LRP 24; assay: Minimum bactericidal concentration (MBC); type: cell-based; details: Corynebacterium, LRP24, read-out: Minimum bactericidal concentration (MBC)
Source text: (§2) the bacterial power, expressed as the minimum bactericidal power (MBC) against some Gram positive aerobic stocks (table 5).

[3] = test system: Staphylococcus aureus ATCC 6538 P LRP 39; assay: Minimum bactericidal concentration (MBC); type: cell-based; details: Staphylococcus aureus, ATCC6538, read-out: Minimum bactericidal concentration (MBC)
Source text: as §2

[4] = test system: Streptococcus pneumoniae ATCC 6303 LRP 35; assay: Minimum bactericidal concentration (MBC); type: cell-based; details: Streptococcus pneumoniae, ATCC6303, read-out: Minimum bactericidal concentration (MBC)
Source text: as §2

[5] = test system: Streptococcus faecalis subs. zymogenes LRP 61; assay: Minimum bactericidal concentration (MBC); type: cell-based; details: Enterococcus faecalis, read-out: Minimum bactericidal concentration (MBC)
Source text: as §2

[6] = test system: Streptococcus pyogenes ATCC 8668 LRP 34; assay: Minimum bactericidal concentration (MBC); type: cell-based; details: Streptococcus pyogenes, ATCC8668, read-out: Minimum bactericidal concentration (MBC)
Source text: as §2

[7] = Serum concentrations in the rat after oral administration; type: in vivo; details: rat, in vivo, po, 100 mg/kg
Procedure: administration of 100 mg/kg per os. The values, at the
several sampling times, correspond to mcg of product per ml of serum*.

[8] = test system: Micrococcus luteus ATCC 9341 LRP 6; assay: Bacteriostatic power in solid medium (MIC); type: cell-based; details: Micrococcus luteus, ATCC9341, read-out: Minimum inhibiting concentration
Outline: as §1

[9] = test system: Proteus vulgaris ATCC 6380 LRP 13; assay: Bacteriostatic power in solid medium (MIC); type: cell-based; details: Proteus vulgaris, ATCC6380, read-out: Minimum inhibiting concentration
Outline: as §1

[10] = test system: Fusobacteriumnecrophroum ATCC 27852 LRP 210; assay: Bacteriostatic power in solid medium (MIC); type: cell-based; details: read-out: Minimum inhibiting concentration
Outline: as §1

[11] = test system: Corynebacterium diphteriae LRP 24; assay: Bacteriostatic power in solid medium (MIC); type: cell-based; details: Corynebacterium, LRP24, read-out: Minimum inhibiting concentration
Outline: as §1

[12] = test system: Streptococcus faecalis subsp. zymogenes ATCC 12958 LRP 61; assay: Bacteriostatic power in solid medium (MIC); type: cell-based; details: Enterococcus faecalis, ATCC12958, read-out: Minimum inhibiting concentration
Outline: as §1

[13] = test system: Acholeplasma laidlawii ATCC 23206 LRP 204; assay: Bacteriostatic power in solid medium (MIC); type: cell-based; details: Acholeplasma laidlawii, ATCC23206; solid medium; read-out: Minimum inhibiting concentration
Outline: as §1

[14] = test system: Haemophilus influenzae ATCC 19418 LRP 213; assay: Bacteriostatic power in solid medium (MIC); type: cell-based; details: Haemophilus influenzae, ATCC19418, read-out: Minimum inhibiting concentration
Outline: as §1

[15] = test system: Streptococcus pneumoniae ATCC 6303 LRP 52; assay: Bacteriostatic power in solid medium (MIC); type: cell-based; details: Streptococcus pneumoniae, ATCC6303, read-out: Minimum inhibiting concentration
Outline: as §1

[16] = test system: Mycoplasma hominis I ATCC 14027 LRP 211; assay: Bacteriostatic power in solid medium (MIC); type: cell-based; details: Metamycoplasma hominis, ATCC14027, read-out: Minimum inhibiting concentration
Outline: as §1

[17] = test system: Pseudomonas aeruginosa LRP 9; assay: Bacteriostatic power in solid medium (MIC); type: cell-based; details: Pseudomonas aeruginosa, LRP9, read-out: Minimum inhibiting concentration
Outline: as §1

[18] = test system: Bacteroides fragilis ATCC 23745 LRP 205; assay: Bacteriostatic power in solid medium (MIC); type: cell-based; details: Bacteroides fragilis, ATCC23745, read-out: Minimum inhibiting concentration
Outline: as §1

[19] = test system: Staphylococcus aureus ATCC 6538P LRP 14; assay: Bacteriostatic power in solid medium (MIC); type: cell-based; details: Staphylococcus aureus, ATCC6538P, read-out: Minimum inhibiting concentration
Outline: as §1

[20] = test system: Streptococcus pyogenes ATCC 8668 LRP 197; assay: Bacteriostatic power in solid medium (MIC); type: cell-based; details: Streptococcus pyogenes, ATCC8668, read-out: Minimum inhibiting concentration
Outline: as §1

[21] = test system: Staphylococcus aureus ATCC 14154 LRP 78; assay: Bacteriostatic power in solid medium (MIC); type: cell-based; details: Staphylococcus aureus, ATCC14154, read-out: Minimum inhibiting concentration
Outline: as §1

[22] = test system: Staphylococcus aureus ATCC 6538P LRP 39; assay: Bacteriostatic power in solid medium (MIC); type: cell-based; details: Staphylococcus aureus, ATCC6538P, read-out: Minimum inhibiting concentration
Outline: as §1

[23] = test system: Streptococcus pneumoniae ATCC 6303 LRP 53; assay: Bacteriostatic power in solid medium (MIC); type: cell-based; details: Streptococcus pneumoniae, ATCC6303, read-out: Minimum inhibiting concentration
Outline: as §1

[24] = test system: Neisseria gonorrhoeae ATCC 19424 LRP 214; assay: Bacteriostatic power in solid medium (MIC); type: cell-based; details: Neisseria gonorrhoeae, ATCC19424, read-out: Minimum inhibiting concentration
Outline: as §1

[25] = test system: Streptococcus pneumoniae ATCC 6303 LRP 35; assay: Bacteriostatic power in solid medium (MIC); type: cell-based; details: Streptococcus pneumoniae, ATCC6303, read-out: Minimum inhibiting concentration
Outline: as §1

Shigella sonnei LRP 5 = assay: Bacteriostatic power in solid medium (MIC); type: cell-based; details: LRP5, read-out: Minimum inhibiting concentration
Outline: as §1

Bacillus subtilis LRP 25 = assay: Bacteriostatic power in solid medium (MIC); type: cell-based; details: Bacillus subtilis, LRP25, read-out: Minimum inhibiting concentration
Outline: as §1

Escherichia coli LRP 50 = assay: Bacteriostatic power in solid medium (MIC); type: cell-based; details: Escherichia coli, LRP50, read-out: Minimum inhibiting concentration
Outline: as §1

[26] = test system: Klelsiella pneumoniae LRP 54; assay: Bacteriostatic power in solid medium (MIC); type: cell-based; details: read-out: Minimum inhibiting concentration
Outline: as §1

[27] = test system: Streptococcus faecalis LRP 7; assay: Bacteriostatic power in solid medium (MIC); type: cell-based; details: Enterococcus faecalis, LRP7, read-out: Minimum inhibiting concentration
Outline: as §1

[28] = test system: Micrococcus luteus ATCC 15957 LRP 193; assay: Bacteriostatic power in solid medium (MIC); type: cell-based; details: Micrococcus luteus, ATCC15957, read-out: Minimum inhibiting concentration
Outline: as §1

[29] = test system: Streptococcus pyogenes ATCC 8668 LRP 34; assay: Bacteriostatic power in solid medium (MIC); type: cell-based; details: Streptococcus pyogenes, ATCC8668, read-out: Minimum inhibiting concentration
Outline: as §1

[30] = Stability in acidic environment at 25° C. (half-life of initial microbiological activity); type: physicochemical; details: aqueous solution
Procedure: Stability in acidic environnment at 25° C. of the novel
Note: t 1/2 represents the time for reducing to one half the initial powe
of the antibiotic determined by microbiological method through diffusion
on a plate using the test stock Microccocus luteus (Sarcina lutea) ATCC

[31] = test system: Corynebacterium diphteriae LRP 24; assay: Bacteriostatic power in liquid medium (MIC); type: cell-based; details: Corynebacterium, LRP24, read-out: Minimum inhibiting concentration
Outline: as §1

[32] = test system: Streptococcus faecalis subs. zymogenes ATCC 12958 LRP 61; assay: Bacteriostatic power in liquid medium (MIC); type: cell-based; details: Enterococcus faecalis, ATCC12958, read-out: Minimum inhibiting concentration
Outline: as §1

[33] = test system: Staphylococcus aureus ATCC 6538 P LRP 39; assay: Bacteriostatic power in liquid medium (MIC); type: cell-based; details: Staphylococcus aureus, ATCC6538, read-out: Minimum inhibiting concentration
Outline: as §1

[34] = test system: Streptococcus pneumoniae ATCC 6303 LRP 35; assay: Bacteriostatic power in liquid medium (MIC); type: cell-based; details: Streptococcus pneumoniae, ATCC6303, read-out: Minimum inhibiting concentration
Outline: as §1

[35] = test system: Streptococcus pyogenes ATCC 8668 LRP 34; assay: Bacteriostatic power in liquid medium (MIC); type: cell-based; details: Streptococcus pyogenes, ATCC8668, read-out: Minimum inhibiting concentration
Outline: as §1

Question: With `CC[C@H]1OC(=O)[C@H](C)[C@@H](O[C@H]2C[C@@](C)(OC)[C@@H](O)[C@H](C)O2)[C@H](C)[C@@H](O[C@@H]2O[C@H](C)C[C@H](N(C)C)[C@H]2O)[C@](C)(O)C[C@@H](C)C(=O)[C@H](C)[C@@H](O)[C@]1(C)O` [Erythromycin A, reference compound] as the compound, how does the MIC (Salmonella typhy LRP 8) read?
Answer: Its MIC is 12.5 µg/mL (≈ 17 µM).

Question: What about the MIC [1] of the same compound?
Answer: Its MIC is 1.56 µg/mL (≈ 2.13 µM).

Question: What about the MBC [2] of the same compound?
Answer: The MBC was 0.049 µg/mL (≈ 0.0668 µM).

Question: What about the MBC [3] of the same compound?
Answer: Its MBC is 1.56 µg/mL (≈ 2.13 µM).

Question: And the MBC [4]?
Answer: The MBC was 0.097 µg/mL (≈ 0.132 µM).

Question: And the MBC [5]?
Answer: The MBC was 6.25 µg/mL (≈ 8.52 µM).

Question: And the MBC [6]?
Answer: The MBC was 0.39 µg/mL (≈ 0.531 µM).

Question: And the concentration at 2 h ([7]; 100 mg/kg per os, 2 hours)?
Answer: The concentration at 2 h was 1140 ng/mL.

Question: And the concentration at 0.5 h ([7]; Serum concentration, average)?
Answer: Its concentration at 0.5 h is 478 ng/mL.

Question: What about the concentration at 1 h ([7]; Serum concentration, average) of the same compound?
Answer: Its concentration at 1 h is 534 ng/mL.

Question: And the concentration at 4 h ([7]; Serum concentration, average)?
Answer: The concentration at 4 h was 262 ng/mL.

Question: What about the concentration at 6 h ([7]; Serum concentration, average) of the same compound?
Answer: The concentration at 6 h was 165 ng/mL.

Question: And the MIC [8]?
Answer: Its MIC is 0.006 µg/mL (≈ 0.00818 µM).

Question: And the MIC [9]?
Answer: Its MIC is 25 µg/mL (≈ 34.1 µM).

Question: And the MIC [10]?
Answer: The MIC was 3.12 µg/mL (≈ 4.25 µM).

Question: And the MIC [11]?
Answer: The MIC was 0.006 µg/mL (≈ 0.00818 µM).

Question: What about the MIC [12] of the same compound?
Answer: Its MIC is 0.097 µg/mL (≈ 0.132 µM).

Question: And the MIC [13]?
Answer: The MIC was 0.097 µg/mL (≈ 0.132 µM).

Question: What about the MIC [14] of the same compound?
Answer: Its MIC is 3.12 µg/mL (≈ 4.25 µM).

Question: What about the MIC [15] of the same compound?
Answer: Its MIC is 0.012 µg/mL (≈ 0.0164 µM).

Question: And the MIC [16]?
Answer: Its MIC is 25 µg/mL (≈ 34.1 µM).

Question: What about the MIC [17] of the same compound?
Answer: Its MIC is 25 µg/mL (≈ 34.1 µM).

Question: What about the MIC [18] of the same compound?
Answer: The MIC was 0.195 µg/mL (≈ 0.266 µM).

Question: And the MIC [19]?
Answer: Its MIC is 0.049 µg/mL (≈ 0.0668 µM).

Question: And the MIC [20]?
Answer: Its MIC is 0.012 µg/mL (≈ 0.0164 µM).

Question: What about the MIC [21] of the same compound?
Answer: The MIC was 25 µg/mL (≈ 34.1 µM).

Question: And the MIC [22]?
Answer: The MIC was 0.049 µg/mL (≈ 0.0668 µM).

Question: What about the MIC [23] of the same compound?
Answer: The MIC was 0.012 µg/mL (≈ 0.0164 µM).

Question: And the MIC [24]?
Answer: Its MIC is 0.049 µg/mL (≈ 0.0668 µM).

Question: And the MIC [25]?
Answer: Its MIC is 0.012 µg/mL (≈ 0.0164 µM).

Question: And the MIC (Shigella sonnei LRP 5)?
Answer: Its MIC is 12.5 µg/mL (≈ 17 µM).

Question: And the MIC (Bacillus subtilis LRP 25)?
Answer: Its MIC is 0.049 µg/mL (≈ 0.0668 µM).

Question: What about the MIC (Escherichia coli LRP 50) of the same compound?
Answer: Its MIC is 6.25 µg/mL (≈ 8.52 µM).

Question: What about the MIC [26] of the same compound?
Answer: Its MIC is 12.5 µg/mL (≈ 17 µM).

Question: And the MIC [27]?
Answer: The MIC was 0.097 µg/mL (≈ 0.132 µM).

Question: And the MIC [28]?
Answer: The MIC was 25 µg/mL (≈ 34.1 µM).

Question: What about the MIC [29] of the same compound?
Answer: The MIC was 0.012 µg/mL (≈ 0.0164 µM).

Question: What about the half-life ([30]; pH 2) of the same compound?
Answer: The half-life was 2 min.

Question: What about the half-life ([30]; pH 3) of the same compound?
Answer: The half-life was 6 min.

Question: And the MIC [31]?
Answer: The MIC was 0.012 µg/mL (≈ 0.0164 µM).

Question: And the MIC [32]?
Answer: The MIC was 0.39 µg/mL (≈ 0.531 µM).

Question: What about the MIC [33] of the same compound?
Answer: Its MIC is 0.097 µg/mL (≈ 0.132 µM).

Question: And the MIC [34]?
Answer: Its MIC is 0.024 µg/mL (≈ 0.0327 µM).

Question: And the MIC [35]?
Answer: Its MIC is 0.024 µg/mL (≈ 0.0327 µM).
